Laboratory results from the NIST ThermoML archive (doi:10.1021/je800110r).
Numbers after ± are expanded uncertainties.

Conditions: 323.14 K, Liquid, Vibrating tube method

CCCCCCCCCC [decane]
Conditions	mass density [kg/m3]
21395 kPa	724.8 ± 2
21420 kPa	724.9 ± 2
21444 kPa	724.9 ± 2
21473 kPa	724.8 ± 2
21501 kPa	724.8 ± 2
21526 kPa	725 ± 2
21647 kPa	725 ± 2
22710 kPa	725.7 ± 2
22733 kPa	725.8 ± 2
22768 kPa	725.8 ± 2
22800 kPa	725.9 ± 2
22832 kPa	725.9 ± 2
22860 kPa	725.9 ± 2
22884 kPa	725.9 ± 2
22916 kPa	725.8 ± 2
22948 kPa	726 ± 2
22977 kPa	726.1 ± 2
23013 kPa	726 ± 2
23034 kPa	726.1 ± 2
23071 kPa	726.1 ± 2
23103 kPa	726.1 ± 2
23124 kPa	726.1 ± 2
23149 kPa	726.2 ± 2
23170 kPa	726.2 ± 2
23191 kPa	726.2 ± 2
23219 kPa	726.2 ± 2
23256 kPa	726.1 ± 2.1
23294 kPa	726.2 ± 2.1
23332 kPa	726.3 ± 2.1
23357 kPa	726.2 ± 2.1
23391 kPa	726.2 ± 2.1
23412 kPa	726.2 ± 2.1
23442 kPa	726.3 ± 2.1
23475 kPa	726.4 ± 2.1
23509 kPa	726.3 ± 2.1
23539 kPa	726.3 ± 2.1
23578 kPa	726.5 ± 2.1
23612 kPa	726.3 ± 2.1
23710 kPa	726.6 ± 2.1
23736 kPa	726.5 ± 2.1
23762 kPa	726.5 ± 2.1
23806 kPa	726.6 ± 2.1
23832 kPa	726.7 ± 2.1
23854 kPa	726.6 ± 2.1
23881 kPa	726.6 ± 2.1
23912 kPa	726.7 ± 2.1
23938 kPa	726.7 ± 2.1
23970 kPa	726.7 ± 2.1
23996 kPa	726.7 ± 2.1
24633 kPa	727.3 ± 2.1
24707 kPa	727.3 ± 2.1
24732 kPa	727.3 ± 2.1
24765 kPa	727.4 ± 2.1
24799 kPa	727.2 ± 2.1
24832 kPa	727.4 ± 2.1
24861 kPa	727.4 ± 2.1
24899 kPa	727.4 ± 2.1
24942 kPa	727.4 ± 2.1
24979 kPa	727.4 ± 2.1
25000 kPa	727.5 ± 2.1
25022 kPa	727.4 ± 2.1
25061 kPa	727.6 ± 2.1
25103 kPa	727.6 ± 2.1
25129 kPa	727.5 ± 2.1
25160 kPa	727.6 ± 2.1
25190 kPa	727.7 ± 2.1
25216 kPa	727.6 ± 2.1
25251 kPa	727.7 ± 2.1
25291 kPa	727.6 ± 2.1
25325 kPa	727.7 ± 2.1
25361 kPa	727.8 ± 2.1
25383 kPa	727.8 ± 2.1
25422 kPa	727.7 ± 2.1
25458 kPa	727.8 ± 2.1
25493 kPa	727.9 ± 2.1
25521 kPa	727.8 ± 2.1
25556 kPa	727.8 ± 2.1
25593 kPa	727.9 ± 2.1
25624 kPa	727.9 ± 2.1
25670 kPa	727.9 ± 2.1
25706 kPa	728 ± 2.1
25742 kPa	727.9 ± 2.1
25783 kPa	728 ± 2.1
25828 kPa	728 ± 2.1
26192 kPa	728.4 ± 2.1
26343 kPa	728.4 ± 2.1
26723 kPa	728.6 ± 2.1
26758 kPa	728.8 ± 2.1
26793 kPa	728.7 ± 2.1
26842 kPa	728.8 ± 2.1
26872 kPa	728.8 ± 2.1
26912 kPa	728.8 ± 2.1
26952 kPa	728.8 ± 2.1
26992 kPa	728.9 ± 2.1
27043 kPa	729 ± 2.1
27362 kPa	729.1 ± 2.1
27409 kPa	729.2 ± 2.1
27440 kPa	729.2 ± 2.1
27472 kPa	729.2 ± 2.1
27524 kPa	729.4 ± 2.1
27568 kPa	729.3 ± 2.1
27605 kPa	729.3 ± 2.1
27657 kPa	729.4 ± 2.1
27684 kPa	729.3 ± 2.1
27758 kPa	729.5 ± 2.1
27796 kPa	729.5 ± 2.1
27882 kPa	729.5 ± 2.1
27920 kPa	729.5 ± 2.1
27958 kPa	729.5 ± 2.1
27997 kPa	729.6 ± 2.1
28042 kPa	729.7 ± 2.1
28096 kPa	729.7 ± 2.1
28135 kPa	729.7 ± 2.1
28185 kPa	729.7 ± 2.1
28230 kPa	729.8 ± 2.1
28317 kPa	729.9 ± 2.1
28358 kPa	729.8 ± 2.1
28393 kPa	729.7 ± 2.1
28457 kPa	730.1 ± 2.1
28496 kPa	730 ± 2.1
28541 kPa	730 ± 2.1
28571 kPa	730.1 ± 2.1
28605 kPa	730 ± 2.1
28640 kPa	730.1 ± 2.1
28675 kPa	730.1 ± 2.1
28714 kPa	730.1 ± 2.1
28744 kPa	730.2 ± 2.1
28779 kPa	730.1 ± 2.1
28819 kPa	730.2 ± 2.1
28844 kPa	730.2 ± 2.1
28887 kPa	730.3 ± 2.1
28913 kPa	730.3 ± 2.1
28938 kPa	730.2 ± 2.1
28968 kPa	730.3 ± 2.1
28999 kPa	730.4 ± 2.1
29030 kPa	730.4 ± 2.1
29065 kPa	730.4 ± 2.1
